Laboratory results published in patent US20230099441A1, “HETEROCYCLIC COMPOUND, APPLICATION THEREOF, AND COMPOSITION CONTAINING SAME” (GenEros Biopharma Ltd., priority 2019, published 2023).

Assays:
[1] = system: mouse collagen-induced arthritis model; test: Therapeutic efficacy in a mouse collagen-induced arthritis model (clinical score); type: in vivo; conditions: for clinical score of arthritis, Mean (the larger the value, the more severe the disease): mean of group, total score 0-12, oral, Methotrexate 0.25 mg/kg once a week, Tofacitinib 5 mg/kg once a day, X8 1 mg/kg once a day
From the text: Example of Effect 2: Evaluation of the Therapeutic Efficacy of X8 Compound in a Mouse Collagen-Induced Arthritis Model
(§1) Sixty male DBA/1J mice (9-10 weeks old, H-2q haplotype) were acclimatized in a standard animal room for one week and then randomly divided into 5 groups. Except for the healthy control group, the rest were inoculated with collagen antigen injection, and then received oral treatment with different compounds. The brief procedure was to mix bovine type II collagen (purchased from Chondrex, 20021) with an equal volume of Freund's complete adjuvant (purchased from Sigma, F5881), the concentration was 4 mg/ml, and it was treated with a homogenizer at a speed of 20,000 revolutions/min for 5-10 minutes. A needle was inserted between the left side of the dorsal caudal artery and the lateral vein of the mouse, and 50 microliters of modeling agent was injected subcutaneously. 21 days after the first injection, another injection was injected between the right side of the dorsal tail artery and the lateral vein of the mouse. After the first injection, oral administration was started. The drug was formulated with […] PEG300, and it was prepared for immediate use. […] The total score was between 0-12 points, and the swelling of the foot after vaccination was not calculated.

[2] = Body weight of animals in the mouse collagen-induced arthritis model; type: in vivo; conditions: oral, X8 1 mg/kg once a day; for body weight of animals, Mean/g: mean of group, Methotrexate 0.25 mg/kg once a week, Tofacitinib 5 mg/kg once a day
From the text: as §1

[3] = system: STAT5 Y694 phosphorylation; test: HTRF experiment: STAT5 Y694 phosphorylation in Hela cells stimulated with human interferon beta; type: cell-based; conditions: 2 hours pretreatment, 10 nM human interferon beta 30 minutes

In the case of O=C(Cc1ccc(C(F)(F)F)cc1)N1CCC(n2c(=O)[nH]c3ccccc32)CC1 [Example X8, 1-(1-(2-(4-(trifluoromethyl)phenyl)acetyl)piperidin-4-yl)-1H-benzo[d]imidazole-2(3H)-one], the “therapeutic effect on severity of the disease (in words)” value ([1]; X8 1 mg/kg once a day oral, compared with tofacitinib 5 mg/kg once a day) is reported as “comparable effects to the tofacitinib treatment group, which significantly reduced the severity of the disease”, the “clinical score of arthritis, Mean (the larger the value, the more severe the disease)” value (“clinical score of arthritis, Mean” below) ([1]; day 0) is reported as 0.00 and the “clinical score of arthritis, Mean” value ([1]; day 21) is reported as 0.00. The “clinical score of arthritis, Mean” value ([1]; day 25) was 0.00, the “clinical score of arthritis, Mean” value ([1]; day 28) was 0.98 and the “clinical score of arthritis, Mean” value ([1]; day 31) was 1.66. For the same compound, the “clinical score of arthritis, Mean” value ([1]; day 33) was 2.39, the “clinical score of arthritis, Mean” value ([1]; day 35) was 2.64 and the “clinical score of arthritis, Mean” value ([1]; day 38) was 2.87. The “clinical score of arthritis, Mean” value ([1]; day 40) was 2.87, the “clinical score of arthritis, Mean” value ([1]; day 42) was 3.17 and the “clinical score of arthritis, Mean” value ([1]; day 45) was 3.39. For the same compound, the “body weight of animals, Mean/g” value ([2]; day 0) was 21.50 g, the “body weight of animals, Mean/g” value ([2]; day 4) was 21.52 g and the “body weight of animals, Mean/g” value ([2]; day 7) was 21.93 g. For the same compound, the “body weight of animals, Mean/g” value ([2]; day 11) was 21.90 g, the “body weight of animals, Mean/g” value ([2]; day 14) was 21.92 g and the “body weight of animals, Mean/g” value ([2]; day 18) was 22.23 g. For the same compound, the “body weight of animals, Mean/g” value ([2]; day 20) was 22.50 g, the “body weight of animals, Mean/g” value ([2]; day 25) was 22.07 g and the “body weight of animals, Mean/g” value ([2]; day 28) was 21.82 g. The “body weight of animals, Mean/g” value ([2]; day 31) was 21.71 g, the “body weight of animals, Mean/g” value ([2]; day 33) was 21.82 g and the “body weight of animals, Mean/g” value ([2]; day 35) was 21.55 g. For the same compound, the “body weight of animals, Mean/g” value ([2]; day 38) was 21.71 g, the “body weight of animals, Mean/g” value ([2]; day 40) was 21.64 g and the “body weight of animals, Mean/g” value ([2]; day 42) was 21.61 g. The “body weight of animals, Mean/g” value ([2]; day 45) was 21.98 g, the “effect on body weight of animals (in words)” value ([2]; whole experiment, days 0-45, methotrexate 0.25 mg/kg once a week, tofacitinib 5 mg/kg once a day) was “no significant effect on body weight of animals, and no drastic changes were seen” and the “Example of Effect 3: Inhibiting Ratio@10 μM (HTRF Experiment)” value [3] was 22.60%.
